According to patent US20100240656A1, “COMPOUNDS AS HSP90 INHIBITORS” (ORYZON GENOMICS, S.A., priority 2007, published 2010):

Experiments:
Type in all cases: cell-based
HCT-116 = test: Cell growth inhibition by AlamarBlue method, HCT-116; settings: Homo sapiens; HCT-116, 72 hours; read-out: Cell growth inhibition values (EC50) obtained with AlamarBlue method
Description: (§1) The human colon cancer cell line HCT-116 and the human breast cell lines MCF-7 and SKBr3 were from the American Type Culture Collection (ATCC; CCL-247, HTB-22 and HTB-30, respectively).
(§2) The HCT-116 and SKBr3 cell lines were maintained in DMEM GlutaMAX (Invitrogen) supplemented with 10% fetal calf serum and the MCF-7 cell line was maintained in RPMI1640 GlutaMAX (Invitrogen) containing 1 mM sodium pyruvate and 10% fetal calf serum. Cells were grown in a humidified incubator at 37° C. in 5% CO2
(§3) Cells were plated in 96-well plates (Costar, 3596) at a density of 6000 cells/well in 50 μL medium 24 h before addition of the compounds. Compounds were then added in 8 concentrations, each in triplicate (dilution series of 1 to 3). To do so, a compound-dilution plate at 200× the screening concentrations was prepared in DMSO 100% (Sigma, 154938). Then, 1.7 μL of the 200× diluted compounds were transferred to a new plate and 170 μL of media were added and mixed with the pipette (plate at 2×). Columns 11 and 12 of this plate (controls) were filled with 1% DMSO in cell media (i.e. 1.7 μL DMSO and 170 μL cell media). Finally, 50 μL of this intermediate plate at 2× were transferred to the plate containing the seeded cells and slowly shaken manually. Cells were grown as described above. AlamarBlue viability assay (Biosource, Invitrogen, DAL1100) was performed 72 hours later following manufacturer's protocol. In brief, AlamarBlue diluted in media was added to cells to have a 5% solution (a 2× solution was prepared in media and 100 μL of this solution were transferred to each well, i.e. final volume of 200 μL). Cells were incubated at 37° C., 3 hours and at room temperature for an additional 30 min. Cells with no compound and, cells with no compound and lysed with triton X-100 (30 μL/well added 10 min before treatment with AlamarBlue) were used as controls (6 replicates of each). Fluorescence was monitored at 530 nm excitation and 590 nm emission wavelengths. Results were quantified using ELx800 Universal Microplate Reader (Bio-Tek Instruments, Inc.). EC50 were calculated as the dose of compound required to inhibit cell growth by 50%.

A-549 = test: Cell proliferation by MTT method, A-549; settings: Homo sapiens
Description: (§4) The objective of this study was to determine the influence of the compounds on cell proliferation of K-562, A-549, MCF-7, HeLa, WI-38 by MTT method. The compounds were tested over a three-fold dilution series in triplicate for the determination of EC50 of their influence on cell proliferation.
(§5) The assay is based on the cleavage of the yellow tetrazolium salt MTT into purple formazan by metabolically active cells. The MTT formazan crystals are insoluble in aqueous solution, but may be solubilized by adding the 10% SDS, then incubating the plates overnight in a humidified atmosphere (e.g., 37° C., 5% CO2). The solubilized formazan product can be photometrically quantitated using Tecan reader. An increase in the number of living cells results in an increase of total metabolic activity, which leads to a stronger color formation.
(§6) EC50 values are defined as the compound concentration at which 50% of reaction product is formed.
(§7) Test compounds were dissolved to 10 mM in 100% DMSO.
(§8) In the day of the experiment cells were seeded into all wells of 96-well plates. Serial dilution of compounds was performed in a separate 96-well plate at 20 times final assay concentration in cell culture medium (DMEM with 10% Fetal Bovine Serum). 5 μl of compound was transferred to 96-well plate containing seeded cells in cell culture medium (final total volume=100 μl). Cells were cultured in the presence of the respective test substances in the 96-well plate at 37° C. in a humidified 5% CO2 incubator for a certain period of time (24, 72 or 120 hours). Then 5 μL of thiazolyl blue tetrazolium bromide (MTT) 5 mg/mL was added to the cells and the cells were reincubated 4 hours in a humidified 5% CO2 incubator. Then 10% SDS was added into the each well. The reaction product was quantified by measuring the absorbance at 568 nm using a scanning multiwell spectrophotometer Tecan. The developed color and thereby the absorbance values directly correlate to the number of the living cells.
The data were analyzed using Microsoft Excel 2000, GraphPad Prism 3.03.
K 562 (human, chronic myelongenous leukemia), A 549 (human, lung carcinoma), MCF-7 (human, breast adenocarcinoma), Hela (human, cervix, carcinoma, epitheloid), WI-38 (human, embryonic lung)

SKBr3 = test: Cell growth inhibition by AlamarBlue method, SKBr3; settings: Homo sapiens, SK-BR-3; SKBr3, 72 hours; read-out: Cell growth inhibition values (EC50) obtained with AlamarBlue method
Description: as §1, §2, §3

HeLa = test: Cell proliferation by MTT method, HeLa; settings: Homo sapiens
Description: as §4, §5, §6, §7, §8
(§9) The data were analyzed using Microsoft Excel 2000, GraphPad Prism 3.03. […]

WI-38 = test: Cell proliferation by MTT method, WI-38; settings: Homo sapiens
Description: as §4, §5, §6, §7, §8, §9

K-562 = test: Cell proliferation by MTT method, K-562; settings: Homo sapiens
Description: as §4, §5, §6, §7, §8, §9

[1] = A549, 24 h, A 549, incubation 1 day
[2] = A549, 72 h, A 549, incubation 3 days
[3] = A549, 120 h, A 549, incubation 5 days

| EC50 (HCT-116) | EC50 (A-549; [1]) | EC50 (A-549; [2]) | EC50 (A-549; [3]) | EC50 (SKBr3) | EC50 (HeLa; 24 h, incubation 1 day) | EC50 (HeLa; 72 h, incubation 3 days) | EC50 (HeLa; 120 h, incubation 5 days) | EC50 (K-562; K562, 24 h, K 562, incubation 1 day) | EC50 (K-562; K562, 72 h, K 562, incubation 3 days) | EC50 (K-562; K562, 120 h, K 562, incubation 5 days) | Compound | EC50 (WI-38; 24 h, WI-38, incubation 1 day) | EC50 (WI-38; 72 h, WI-38, incubation 3 days) | EC50 (WI-38; 120 h, WI-38, incubation 5 days) |
| --- | --- | --- | --- | --- | --- | --- | --- | --- | --- | --- | --- | --- | --- | --- |
| 18 µM | > 100 µM | 13.3 µM | 16.2 µM | 24 to 30 µM |  |  |  |  |  |  | CCCCn1c(Sc2cc3c(cc2I)OCO3)nc(C(N)=O)c1N [Example 10, 5-amino-1-butyl-2-(6-iodo-benzo[1,3]dioxol-5-ylsulfanyl)-1H-imidazole-4-carboxamide] |  |  |  |
| 23.7 µM | > 100 µM | 24.1 µM | 14.9 µM |  | > 100 µM | 14.6 µM | 8.6 µM | > 100 µM | 12.2 µM | 9.1 µM | NCCCCCn1c(Sc2cc3c(cc2I)OCO3)nc(C(N)=O)c1N [Example 6, 5-amino-1-(5-amino-pentyl)-2-(6-iodo-benzo[1,3]dioxol-5-ylsulfanyl)-1H-imidazole-4-carboxamide] | > 100 µM | 27.7 µM | 19.5 µM |
